Earlier results in patent US20150064117A1, “NOVEL POLYMORPHS OF REBAUDIOSIDE C AND METHODS FOR MAKING AND USING THE SAME” (Redpoint Bio Corporation, priority 2009, published 2015).
Read-outs that look alike come from different tables or passages of the source.

Columns and labels:
[1] = relative to sucrose

Row | Compound | times sweeter than sucrose [1] | effect in mixture (presence and degree of synergism) (mixture with fructose, intensity equivalent to 3% (w/v-%) sucrose) | effect in mixture (presence and degree of synergism) (mixture with fructose, intensity equivalent to 5% (w/v-%) sucrose) | effect in mixture (presence and degree of synergism) (mixture with fructose, intensity equivalent to 7% (w/v-%) sucrose) | effect in mixture (presence and degree of synergism) (mixture with glucose, intensity equivalent to 3% (w/v-%) sucrose) | effect in mixture (presence and degree of synergism) (mixture with glucose, intensity equivalent to 5% (w/v-%) sucrose) | effect in mixture (presence and degree of synergism) (mixture with glucose, intensity equivalent to 7% (w/v-%) sucrose) | effect in mixture (presence and degree of synergism) (mixture with sucrose, intensity equivalent to 3% (w/v-%) sucrose) | effect in mixture (presence and degree of synergism) (mixture with sucrose, intensity equivalent to 5% (w/v-%) sucrose) | effect in mixture (presence and degree of synergism) (mixture with sucrose, intensity equivalent to 7% (w/v-%) sucrose)
1 | C=C1C[C@@]23CC[C@H]4[C@@](C)(CCC[C@@]4(C)C(=O)O[C@@H]4O[C@H](CO)[C@@H](O)[C@H](O)[C@H]4O)[C@@H]2CC[C@]1(O[C@@H]1O[C@H](CO)[C@@H](O)[C@H](O)[C@H]1O[C@@H]1O[C@@H](C)[C@H](O)[C@@H](O)[C@H]1O)C3 [dulcoside A] | 30 times | – | – | – | – | – | – | – | – | –
2 | C=C1C[C@@]23CC[C@H]4[C@@](C)(CCC[C@@]4(C)C(=O)O[C@@H]4O[C@H](CO)[C@@H](O)[C@H](O)[C@H]4O)[C@@H]2CC[C@]1(O[C@@H]1O[C@H](CO)[C@@H](O)[C@H](O[C@@H]2O[C@H](CO)[C@@H](O)[C@H](O)[C@H]2O)[C@H]1O[C@@H]1O[C@H](CO)[C@@H](O)[C@H](O)[C@H]1O)C3 [rebaudioside A] | – | additive | additive | suppressive | additive | additive | suppressive | synergistic | additive | additive
3 | Rebaudioside C | ≥ 40 times | – | – | – | – | – | – | – | – | –
